The target in one test is T1, glucocorticoid receptor (Homo sapiens, UniProt P04150).
T1 construct: containing 50-200 ug of A549 cell extract and 1.86 nM; host or cells: A549 human lung epithelial cells
T1 sequence (P04150 1-777): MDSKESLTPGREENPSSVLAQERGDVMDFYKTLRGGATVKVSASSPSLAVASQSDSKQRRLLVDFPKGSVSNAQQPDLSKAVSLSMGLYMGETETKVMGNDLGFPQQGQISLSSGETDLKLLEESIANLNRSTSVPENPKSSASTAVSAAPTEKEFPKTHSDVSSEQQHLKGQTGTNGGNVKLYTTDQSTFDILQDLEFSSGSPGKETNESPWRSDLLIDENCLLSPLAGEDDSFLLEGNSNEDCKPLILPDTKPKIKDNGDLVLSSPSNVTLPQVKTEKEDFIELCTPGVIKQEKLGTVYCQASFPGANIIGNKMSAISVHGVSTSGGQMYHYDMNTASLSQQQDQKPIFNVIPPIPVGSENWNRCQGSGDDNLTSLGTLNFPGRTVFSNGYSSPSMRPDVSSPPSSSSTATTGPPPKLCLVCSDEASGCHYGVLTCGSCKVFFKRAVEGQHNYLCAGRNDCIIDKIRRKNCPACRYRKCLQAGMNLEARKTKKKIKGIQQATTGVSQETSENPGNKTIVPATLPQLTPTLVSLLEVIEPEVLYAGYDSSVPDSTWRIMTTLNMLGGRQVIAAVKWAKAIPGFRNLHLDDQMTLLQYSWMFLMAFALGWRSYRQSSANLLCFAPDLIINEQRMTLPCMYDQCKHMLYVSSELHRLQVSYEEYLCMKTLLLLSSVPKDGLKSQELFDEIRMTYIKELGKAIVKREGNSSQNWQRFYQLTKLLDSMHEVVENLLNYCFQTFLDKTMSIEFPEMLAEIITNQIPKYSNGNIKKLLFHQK
Kind of test: Glucocorticoid Receptor Binding Assay (Method 1), [3H]-dexamethasone competition, A549 cell extract. Particulars: 1.86 nM [3H]-dexamethasone, read-out: GR Ki (nM) Method 1. The procedure: Glucocorticoid Receptor Binding Assay (Method 1):
A549 human lung epithelial cells (ATCC) are grown at a scale where gram quantity cell pellets are obtained. Harvested cell pellets are washed twice in cold phosphate buffered saline, centrifuged, and resuspended in cold assay binding buffer. The assay binding buffer consists of 10% glycerol, 50 mM Tris-HCl (pH7.2), 75 mM sodium chloride, 1.5 mM magnesium chloride, 1.5 mM EDTA, and 10 mM sodium molybdate. Cell suspensions were lysed via sonication, centrifuged, and the “extract” supernatant is snap frozen and stored at −80 C until needed.
Incubations are carried out at 4 degrees Celsius for 16 hours. After incubation, 70 ul of 3× dextran-coated charcoal solution is added to each reaction, mixed, and incubated for 8 minutes at RT. 3×-dextran-coated charcoal solution consists of 250 ml assay binding buffer, 3.75 g Norit A charcoal (Sigma), and 1.25 g dextran T-70 (Amersham). Charcoal/unbound radioligand complexes are removed by centrifugation of the plate and 140 ul of supernatant from each well is transferred to another 96 well Optiplate (Packard Instruments). 200 ul of Microscint-20 scinillant (Packard Instruments) is added to each well and amount of receptor bound radioligand is determined using Packard Instruments TopCount instrument.

A further test has as its target T2, human MR (Homo sapiens, UniProt P08235).
T2 construct: The full length human MR gene is cloned from a human kidney or human brain cDNA library; inferred from own knowledge of the pAcHLT vector (N); made in house; host or cells: Sf9 insect cells (baculovirus)
T2 sequence (P08235 1-984): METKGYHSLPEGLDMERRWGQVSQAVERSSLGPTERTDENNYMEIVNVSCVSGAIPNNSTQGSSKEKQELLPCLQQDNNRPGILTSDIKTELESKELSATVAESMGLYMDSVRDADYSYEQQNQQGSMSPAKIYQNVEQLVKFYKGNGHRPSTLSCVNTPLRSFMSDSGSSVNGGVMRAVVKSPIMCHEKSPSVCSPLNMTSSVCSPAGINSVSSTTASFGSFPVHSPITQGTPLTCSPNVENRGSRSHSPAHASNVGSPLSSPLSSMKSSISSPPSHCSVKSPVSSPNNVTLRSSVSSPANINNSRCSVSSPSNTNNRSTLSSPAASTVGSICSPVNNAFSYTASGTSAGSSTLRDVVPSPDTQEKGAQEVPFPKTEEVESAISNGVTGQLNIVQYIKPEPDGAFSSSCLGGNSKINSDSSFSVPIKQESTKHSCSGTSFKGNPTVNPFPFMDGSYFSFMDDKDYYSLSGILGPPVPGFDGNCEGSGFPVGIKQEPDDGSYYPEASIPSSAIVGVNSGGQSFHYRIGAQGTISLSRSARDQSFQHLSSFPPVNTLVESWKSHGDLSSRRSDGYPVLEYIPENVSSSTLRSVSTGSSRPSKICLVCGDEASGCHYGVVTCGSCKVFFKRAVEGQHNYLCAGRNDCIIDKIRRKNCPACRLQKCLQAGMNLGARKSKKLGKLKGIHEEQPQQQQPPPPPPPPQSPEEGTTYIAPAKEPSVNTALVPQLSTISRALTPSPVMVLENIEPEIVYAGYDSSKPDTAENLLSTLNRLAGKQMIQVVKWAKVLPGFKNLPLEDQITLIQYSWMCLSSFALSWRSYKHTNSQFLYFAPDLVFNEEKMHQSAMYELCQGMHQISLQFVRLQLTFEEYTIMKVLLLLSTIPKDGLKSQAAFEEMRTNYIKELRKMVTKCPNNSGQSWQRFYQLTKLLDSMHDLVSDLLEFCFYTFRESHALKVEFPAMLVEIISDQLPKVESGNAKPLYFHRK
Kind of test: Mineralocorticoid Receptor Binding Assay (Method 1), [3H]-aldosterone competition. Particulars: 0.5 nM [3H]-aldosterone, human MR expressed in Sf9 cells. The procedure: Mineralocorticoid Receptor Binding Assay (Method 1):
The full length human MR gene is cloned from a human kidney or human brain cDNA library. […] The PCR reaction is performed in a final volume of 50 μl containing about 1 μl of a 50× stock solution of polymerase; about 1 μl of a 50× stock solution of dNTP; about 5 μl of an appropriate PCR buffer; about 1 μl of each primer; about 5 μl of a H. kidney or H. brain cDNA library; and about 36 μl of water. The reaction is allowed to denature for about 30 seconds at 95 degrees Celsius, anneal for about 30 seconds at 55 degrees Celsius, and extend for about 5 minutes at 72 degrees Celsius, the sequence being repeated for a total of about 35 cycles. […] To extract the cDNA product from the agarose gel, the QIAEX II Gel Extraction protocol (QIAGEN, Inc.) is employed according to the manufacturer's instructions. Following extraction, the MR cDNA is cloned into an appropriate cloning vector (Zero Blunt TOPO PCR Cloning Kit (Invitrogen, Inc.) and a pAcHLT-baculovirus transfer vector (B.D./Pharminogen), then expressed in SF9 insect cells, essentially according to manufacturer's instructions. Sf9 cells are grown at a scale where gram quantity cell pellets are obtained for subsequent use in the MR binding assay. Harvested cell pellets are lysed by repeated freeze-thaw cycles (about 4) in a suitable lysis buffer then centrifuged at about 1×10^3 G (with the supernatant being saved for future assays).
MR binding assays are performed in a final total volume of about 250 μl containing about 20-25 μg of protein and 0.5 nM of [^3H]-aldosterone plus varying concentrations of test compound or vehicle. The assay binding buffer consists of 30 mM sodium molybdate, 30 mM of TRIS-HCl, 5 mM sodium phosphate, 5 mM sodium pyrophosphate, and about 10% glycerol, pH=7.5.
Incubations are carried out at 4 degrees Celsius with shaking for about 16 hours. 200 μl aliquots of each incubation are filtered onto Millipore HA 0.45 micron 96-well filter plates, pre-moistened with cold 30 mM TRIS-HCl. The filter plates are suctioned dry with vacuum and immediately washed 3× with cold 30 mM TRIS-HCl. The plates are then punched out and the amount of receptor-ligand complex is determined by liquid scintillation counting using 4 ml of Ready Protein Plus™ liquid scintillation cocktail.

Molecules are shown by their SMILES.

With `CCC(CC)(c1cccs1)c1c[nH]c2c(NS(C)(=O)=O)cccc12` [Example 15, N-[3-(1-Ethyl-1-thiophen-2-yl-propyl)-1H-indol-7-yl]-methanesulfonamide], the inhibitory constant (Ki) at glucocorticoid receptor and on human MR was less than 500 nM throughout.
On to `CCC(CC)(c1ccc(F)cc1)c1c[nH]c2c(N)cccc12` [Example 79, 3-[1-Ethyl-1-(4-fluoro-phenyl)-propyl]-1H-indol-7-ylamine], for which the Ki (in general, the dissociation constant of the complex between target and ligand, obtained from inhibition or displacement) on glucocorticoid receptor was less than 1000 nM; on human MR, less than 500 nM.
In the same order, the values of `CCC(CC)(c1cc2ccccc2s1)c1c[nH]c2c(NS(C)(=O)=O)cccc12` [Example 6, N-[3-(1-Benzo[b]thiophen-2-yl-1-ethyl-propyl)-1H-indol-7-yl]-methanesulfonamide] are less than 500 nM and less than 500 nM.
Take `CCCC(C)(c1ccc(OC)cc1)c1c[nH]c2c(C)cccc12` (stereo not drawn) [Example 20, 3-[1-(4-Methoxy-phenyl)-1-methyl-butyl]-7-methyl-1H-indole]: the Ki at glucocorticoid receptor and on human MR was less than 500 nM in each case.
Regarding `CCCC(C)(c1ccsc1)c1c[nH]c2c(NS(C)(=O)=O)cccc12` (stereo not drawn) [Example 10, N-[3-(1-Methyl-1-thiophen-3-yl-butyl)-1H-indol-7-yl]-methanesulfonamide], the Ki at glucocorticoid receptor and on human MR was less than 500 nM each time.
As to `CCCC(C)(c1ccc(OC)cc1)c1c[nH]c2c(CC)cccc12` (stereo not drawn) [Example 19, 7-Ethyl-3-[1-(4-methoxy-phenyl)-1-methyl-butyl]-1H-indole], the Ki on glucocorticoid receptor and at human MR was less than 500 nM throughout.
`CCc1cccc2c(C(C)(c3ccccc3)c3ccc(OC)cc3)c[nH]c12` (stereo not drawn) [Example 25]: the Ki at glucocorticoid receptor and on human MR was less than 500 nM throughout.
As to `CCCCC(C)(c1ccc(OC)cc1)c1c[nH]c2c(C)cccc12` (stereo not drawn) [Example 23, 3-[1-(4-Methoxy-phenyl)-1-methyl-pentyl]-7-methyl-1H-indole], the Ki at glucocorticoid receptor and on human MR was less than 500 nM throughout.
As to `CCCC(C)(c1ccc(C)cc1)c1c[nH]c2c(NS(C)(=O)=O)cccc12` (stereo not drawn) [Example 1, N-[3-(1-Methyl-1-p-tolyl-butyl)-1H-indol-7-yl]methane sulfonamide], the Ki on glucocorticoid receptor and on human MR was less than 500 nM each time.
In the case of `CCCC(C)(c1ccc(F)cc1)c1c[nH]c2c(C)cccc12` (stereo not drawn) [Example 26, 3-[1-(4-Fluoro-phenyl)-1-methyl-butyl]-7-methyl-1H-indole], the Ki on glucocorticoid receptor and at human MR was less than 500 nM throughout.
On to `CC(C)(c1cc2ccccc2o1)c1c[nH]c2c(NS(C)(=O)=O)cccc12` [Example 9, N-[3-(1-Benzofuran-2-yl-1-methyl-ethyl)-1H-indol-7-yl]-methanesulfonamide], for which the inhibitory constant (Ki) at glucocorticoid receptor and at human MR was less than 500 nM each time.
In the case of `CCCC(C)(c1ccccc1)c1c[nH]c2c(C)cccc12` (stereo not drawn) [Example 37, 7-Methyl-3-(1-methyl-1-phenyl-butyl)-1H-indole], the Ki on glucocorticoid receptor and on human MR was less than 500 nM each time.
Take `CCC(CC)(c1ccc(C)cc1F)c1c[nH]c2c(NS(C)(=O)=O)cccc12` [Example 57, N-{3-[1-Ethyl-1-(2-fluoro-4-methyl-phenyl)-propyl]-1H-indol-7-yl}-methanesulfonamide]: the Ki on glucocorticoid receptor and on human MR was less than 500 nM in each case.
Consider `CCC(CC)(c1cc2cccc(OC)c2o1)c1c[nH]c2c(NS(C)(=O)=O)cccc12` [Example 4, N-{3-[1-Ethyl-1-(7-methoxy-benzofuran-2-yl)-propyl]-1H-indol-7-yl}-methanesulfonamide], for which the Ki on glucocorticoid receptor and at human MR was less than 500 nM throughout.
`CCC(CC)(c1ccc([S@+](C)[O-])cc1)c1c[nH]c2c(NS(C)(=O)=O)cccc12` (stereo in doubt) [Example 49, N-{3-[1-Ethyl-1-(4-methanesulfinyl-phenyl)-propyl]-1H-indol-7-yl}-methanesulfonamide]: the Ki at glucocorticoid receptor and on human MR was less than 500 nM in each case.
For `CCC(C)(c1ccc(C)cc1)c1c[nH]c2c(NS(C)(=O)=O)cccc12` (stereo not drawn) [Example 65, N-[3-(1-Methyl-1-p-tolyl-propyl)-1H-indol-7-yl]-methanesulfonamide], the Ki at glucocorticoid receptor and on human MR was less than 500 nM in each case.
Regarding `CCCC(C)(c1cccc(OC)c1)c1c[nH]c2c(N)cccc12` (stereo not drawn) [Example 38, 3-[1-(3-Methoxy-phenyl)-1-methyl-butyl]-1H-indol-7-ylamine], the Ki on glucocorticoid receptor was less than 1000 nM; at human MR, less than 500 nM.
In the same order, the values of `CC(c1ccc(F)cc1)(c1c[nH]c2c(NS(C)(=O)=O)cccc12)C1CC1` (stereo not drawn) [Example 5, N-{3-[1-Cyclopropyl-1-(4-fluoro-phenyl)-ethyl]-1H-indol-7-yl}-methanesulfonamide] are less than 500 nM and less than 500 nM.

These data come from patent US20060235222A1, “Indole-derivative modulators of steroid hormone nuclear receptors” (ELI LILLY AND COMPANY, priority 2003, published 2006).
